71 molecules from PubChem BioAssay AID2252 (Southern Research Specialized Biocontainment Screening …, 2010) can be followed below.

Broadly, the EC50 is the concentration giving half of the maximal effect.

In the assay the test system is THP-1 viability, CellTiter-Glo luminescence, 72 h. Put plainly: PubChem AID 2252.

Consider `CCC(C)(c1ccc(C(=O)OC)s1)c1ccc(C(=O)OC)s1`, for which the EC50 was 49.7 µM.
With `O=C(C[n+]1cc(Br)cc2ccccc21)c1ccc(F)cc1`, the EC50 is below 0.1 µM.
Turning to `Clc1ccc(Nc2ccc(NCc3ccccc3)nn2)cc1`, the EC50 was 22.4 µM.
The same measure for `O=C(CCN1CCC(c2ccccc2)C1)c1ccc2c(c1)OCCO2` (stereo unspecified): 21.6 µM; for `c1ccc2c(c1)OC(CCCN1CCCCC1)c1ccccc1S2` (stereo unspecified): 21.8 µM.
The same measure for `Cc1ccc2cc(CN(CCN(C)C)C(=O)Nc3ccc(Cl)cc3)c(=O)[nH]c2c1`: 19.1 µM.
For `CCCCCOc1ccc(CSC2=NCCN2)cc1[N+](=O)[O-]`, the EC50 is 20 µM.
With `O=C(NCc1cccnc1)c1ccc(COc2ccc(Cl)cc2)cc1`, the EC50 is 43.8 µM.
Turning to `CCCCc1ccc(NC2=NCCCS2)cc1`, the EC50 was 21.3 µM.
For the molecule `CN(C)CCCNC(=O)c1ccc(-c2nc(-c3ccc(Cl)cc3)cs2)cc1`, the EC50 is 3.96 µM.
The same measure for `Oc1c(Cl)cc(CN2CCCCC2)c2cccnc12`: 0.71 µM; for `Oc1cccc(C=NCc2ccccc2)c1O`: 38.9 µM.
The same measure for `Cc1ccccc1Nc1cc(C)c2c(O)cccc2n1`: 5.03 µM; for `C#CCOCCOCCOCCNc1nc(N2CCN(C(=O)CCCCCCCCCCNC(=O)[C@H](CCCCN)n3cc(C)nn3)CC2)nc(N2CCN(C(=O)CCCCCCCCCCNC(=O)[C@H](CCCN=C(N)N)n3cc(C[C@@H](C)CC)nn3)CC2)n1`: 5.13 µM; for `Cc1ccc(C(=O)Sc2cccccc2=O)cc1`: 2.27 µM.
The same measure for `NC1=NC2(CCCCC2)N=C(Nc2ccc(Br)cc2)N1`: 2.39 µM.
For the molecule `Cc1ccc(N=Cc2cc(Br)cc(Cl)c2O)cc1`, the EC50 was 49.5 µM.
In the case of `CC(=O)Nc1ccc(NC(=O)CSc2ccc(-c3ccco3)nn2)cc1` it was below 0.1 µM; in that of `CNc1ccc(SC#N)cc1`, 33.7 µM.
The same measure for `Fc1cccc(NC(=S)NCc2ccc(Cl)cc2)c1`: 46.7 µM; for `O=c1[nH]c(-c2ccccn2)nc(C(F)(F)F)c1Br`: 11.5 µM.
In the case of `Cc1cccc2sc(N(CCCN(C)C)C(=O)COc3ccc(Cl)cc3)nc12` it was 24.9 µM; in that of `CCCCCCCCn1ccc(=N)cc1`, 5.47 µM.
On to `O=C(Nc1cccc(Cl)c1)Nc1nccs1`, for which the EC50 was 33.8 µM.
The same measure for `CN1CCN(C2Cc3cc(Cl)ccc3Sc3cc(F)ccc32)CC1` (stereo unspecified): 8.2 µM; for `O=C(Cn1cc[n+](CC(=O)c2ccc(Cl)cc2Cl)c1)c1ccc(Cl)cc1Cl`: 16.1 µM.
The same measure for `Cc1ccc2nc(N(CCCN(C)C)C(=O)c3sc4ccccc4c3Cl)sc2c1`: 28.1 µM; for `O=CN/N=C/c1c(O)ccc2ccccc12`: 5.1 µM.
The same measure for `Oc1ccc(CN2CCCc3ccccc32)c2cccnc12`: 3.33 µM.
`O=[N+]([O-])c1cccc2c(N3CCCC3)ccnc12`: the EC50 is 9.77 µM.
As to `NC1=NC[C@@H](Cc2ccc(O)cc2)N1CCc1cc(C(F)(F)F)cc(C(F)(F)F)c1`, the EC50 is 32.3 µM.
The same measure for `Oc1ccc(C[C@@H]2CNCCN2CCCCC2CCCCC2)cc1`: 8.53 µM; for `CC[C@H](C)[C@@H](CN[C@H](C)CNC)NCCC(c1ccccc1)c1ccccc1`: 7.07 µM; for `O=C(CCN1CCOCC1)c1ccc(Br)cc1`: 43.2 µM.
Consider `CCOC(=O)C1=C(c2ccccc2)NC(N)=NC1c1ccc(OCc2ccc(C(=O)OC)cc2)cc1` (stereo unspecified), for which the EC50 is 7.56 µM.
For the molecule `COc1cc(CNCCc2c[nH]c3ccccc23)ccc1OCc1ccccc1F`, the EC50 was 13.1 µM.
As to `CC1=C([N+](=O)[O-])C(c2ccccc2)C2=C(N1)c1ccccc1C2=O` (stereo unspecified), the EC50 is 1.01 µM.
Take `O=C1C2=C(Nc3ccccc3SC2c2ccco2)c2ccccc21` (stereo unspecified): the EC50 is 23.6 µM.
The same measure for `CCCCOc1ccc(NC2=NC3(CCCCC3)N=C(N)N2)cc1`: 7.18 µM.
The same measure for `Oc1c(Br)cc(Br)cc1C=Nc1cccc2ncccc12`: 12.9 µM.
In the case of `COc1cc(CNCCc2c[nH]c3ccccc23)ccc1OCc1ccc(F)cc1` it was 6.34 µM; in that of `Fc1ccc(Nc2c3c(nc4ccccc24)CCC3)cc1`, 6.33 µM.
`C#CC(=O)N(c1cccc(OC)c1)C(C(=O)NC1CCCC1)c1cccs1` (stereo unspecified): the EC50 is 0.9 µM.
The same measure for `NC(N)=Nc1nc(-c2ccccc2)c2cc(Cl)ccc2n1`: 3.77 µM; for `COC(=O)C(C)NC(=S)N1CCN(c2c(F)cc3c(=O)c(C(=O)O)cn(C4CC4)c3c2OC)CC1C` (stereo unspecified): 36.9 µM; for `O=C(CCc1ccccc1)NNC(=S)NC(=O)c1ccccc1`: 10.9 µM.
In the case of `O=C(Cn1nc(CNc2ccc(Br)cc2)[n+]2c1CCCCC2)c1ccc([N+](=O)[O-])cc1` it was 27.3 µM; in that of `CCOc1ccccc1-c1cc(-c2ccccc2)nc2c1c(=O)n(C)c(=O)n2C`, below 0.1 µM; in that of `COc1ccc2sc(N(CCCN(C)C)C(=O)c3ccc(S(=O)(=O)N4CCc5ccccc5C4)cc3)nc2c1`, 4.42 µM.
The same measure for `CC1CC(C)CN(CCOc2ccc(Cl)cc2Cl)C1` (stereo unspecified): 29.4 µM.
In the case of `O=C(Cc1cccs1)N/N=C\c1ccc([N+](=O)[O-])s1`, the EC50 is 12.5 µM.
On to `OC(CNCCc1ccc(Cl)cc1)COc1cc(Cl)ccc1Cl` (stereo unspecified), for which the EC50 was 29.8 µM.
Consider `CCOc1ccc(-c2cc(C)[n+](CCN(CC)CC)c(-c3ccc(OCC)cc3)c2)cc1`, for which the EC50 is 4.37 µM.
The same measure for `C#CCOCCOCCOCCNc1nc(N2CCN(C(=O)CCCCCCCCCCNC(=O)[C@H](CO)n3cc(CCCCCN)nn3)CC2)nc(N2CCN(C(=O)CCCCCCCCCCNC(=O)[C@H](CCCN=C(N)N)n3cc(C[C@@H](C)CC)nn3)CC2)n1`: 6.31 µM; for `CCOC(=O)CNC(=O)Cn1c(C)cc2ccccc2c1=O`: 40.9 µM; for `Cc1ccc2nc(/C(C#N)=C\c3ccc([N+](=O)[O-])o3)[nH]c2c1`: 1.25 µM.
The same measure for `Cc1[nH]c2ccc(OC(F)(F)F)cc2c1CCNCc1ccc(Cl)cc1`: 4.99 µM; for `O=C(N/N=C/c1cc([N+](=O)[O-])ccc1O)c1cccc2cc[nH]c12`: 1.91 µM.
The same measure for `O=C(N/N=C\c1cccc([N+](=O)[O-])c1O)C1COc2ccccc2O1` (stereo unspecified): 25.4 µM.
Consider `CCN(CC)CCn1c(=N)n(CC(O)COc2cccc(C)c2)c2ccccc21` (stereo unspecified), for which the EC50 was 16.2 µM.
In the case of `Cc1ccc(-n2[nH]c(C)c(C=NCc3ccncc3)c2=O)cc1` it was 31.6 µM; in that of `Cc1ccc(C(=O)N/C(=C\c2ccc(-c3ccc(Cl)cc3)o2)C(=O)NCCCN(C)C)cc1`, 5.31 µM; in that of `COc1cccc(CNCCc2c[nH]c3ccccc23)c1OCc1ccccc1`, 6.18 µM.
Turning to `Cc1oc(/N=C/c2ccc(O)cc2O)c(C#N)c1C`, the EC50 is below 0.1 µM.
`O=[N+]([O-])c1ccc(/C=N/NC(=S)Nc2ccc(Cl)cc2Cl)s1`: the EC50 is 47.5 µM.
In the case of `CN1CCCN(C(c2ccccc2)c2ccc(Cl)cc2)CC1` (stereo unspecified) it was 8.99 µM.
Turning to `COc1ccccc1N1CCN(Cc2ccc(O)c3ncccc23)CC1`, the EC50 was 2.61 µM.
The same measure for `CCc1ccc(N2CC(C(=O)N/N=C/c3cc([N+](=O)[O-])ccc3O)CC2=O)cc1` (stereo unspecified): 11.3 µM; for `COC(=O)c1ccc(CSc2ccc3nnc(-c4ccc(OC)c(OC)c4)n3n2)o1`: 10.3 µM; for `CN(C)CC/C=C1/c2cc(F)ccc2Sc2ccc(Cl)cc21`: 20.5 µM.
In the case of `Nc1nonc1-n1nnc(C(=O)N/N=C/c2cc(Br)ccc2O)c1CSC1=NCCS1` it was 1.29 µM.
